Patent US10729820B2, “Methods and processes for application of drug delivery polymeric coatings” (Ariste Medical, LLC, priority 2014, dated 2020)
Structures can show the parent of a compound that is named as a salt. Where two headings read alike, the source gives them in different places.

Legend:
[1] = assay type: physicochemical; details: 0.4 mg/cm^2
Method: Three 35.3 mg, 3.24 cm^2 pieces of polypropylene mesh were cut. About 80 mg thiolene formula (67.22 wt % pentaerythritol tetrakis(3-mercaptopropionate), 32.73 wt % triallyl isocyanurate, and 0.05 wt % hydroquinone:tertbutyl cathetol (1:1 mixture by moles), density is, ca, 1.2 g/mL) was weighed and dissolve the formula in acetone aiming for the concentration of 200 mg/mL. Weighed about 2 mg PTPO and dissolved it in acetone aiming for the concentration of 10 mg/mL. Took 8.1 μL of solution of PTPO (which contained 81 ug PTPO) and 81 μL of the thiolene solution (which contained 16.2 mg of thiolene formula) and mixed them in a 1.5 mL centrifuge tube, so that the PTPO to monomer weight ratio was 0.005. The thiolene formula to PP mesh ratio was 5 mg/cm^2. Drugs were dissolved in methanol and drug/methanol solutions were mixed with monomer/acetone solutions such that solvent ratios were at 2:1 acetone:methanol for drug containing specimens (Table 8). Those specimens not containing drug used pure acetone solvents in the coating formulation. […]
The concentration of minocycline hydrochloride and rifampin in specimen 8 was determined using direct proportions of peak area integrations and taking of […] as 100% drug control. […] The antibiotics remaining after curing was calculated as: {(Peak integration of specimen 8)/(peak integration of specimen 9)}×100%

[2] = Antibiotics remaining after curing, EXP12-formula coating with Irgacure 2959, HPLC peak integration (Example 13); assay type: physicochemical; details: cured specimen with drug vs specimen 9, Irgacure 2959, UV-C chamber, curing time 10 mins
Method: All procedures are same as Example 12 except the PTPO is replaced by Irgacure 2959. The curing time was set to 10 mins. The UV source was Ariste UV-C chamber. […]

[3] = Antibiotics remaining after curing, pentaerythritol tetrakis(3-mercaptopropionate)/PEG DM thiolene coating (EXP12-formula) with PTPO, HPLC peak integration (Example 12); assay type: physicochemical; details: specimen 11 vs specimen 9, 0.4 mg/cm^2 each drug, curing time 10 mins
Method: All procedures were same as Example 11 except that the thiolene formula was replaced by the following formula (10 g of pentaerythritol tetrakis(3-mercaptopropionate) (from Sigma Aldrich, P #381462, lot #80896TMV) and 21.4 g of polyethylene glycol dimethacrylate (from Sigma Aldrich, P #409510, lot # MKBP0253V) (EXP12-formula). The curing time was set to 10 mins. The two specimens used in curing are shown in the following Table 11. Specimen 9 as discussed in Example 11 was used as a standard.
The top is specimen 9 and the bottom is the cured specimen 11 with drug loading.

[4] = assay type: physicochemical; details: 0.04 mg/cm^2
Method: Three pieces, each approximate 4 cm^2, of polypropylene (PP) mesh (density d=107 g/m^2) were cut and weighed to make sure that each piece has same weight. The weight was 42.7 mg for each piece as the actual area was, ca, 42.7 mg/(10.7 mg/cm^2)=4 cm^2. Polyethylene glycol dimethacrylate (PEG DM) (60 mg) was weighed and dissolve the in acetone making the concentration as 100 mg/mL. PTPO (4.5 mg) was weighed and dissolve in acetone making the concentration as 10 mg/mL. 5 μL of PTPO solution (containing 50 ug PTPO) in step and 100 μL of PEG DM solution (containing 10 mg of PEG DM formula, described above) were mixed in a 1.5 mL centrifuge tube so that the PTPO to PEG DM weight ratio was 0.5%. Took preweighed 157 μg of minocycline and 157 μg of rifampin, so that the drug loading was about 0.04 mg/cm^2 in this experiment for each drug. The solutions were transferred onto PP mesh using an automatic pipette while the meshes were held by a plastic clamp. Specimen 4 and 5 were subjected to curing while specimen 6 was chosen as a reference. The thiolene formula loading was 2.5 mg/cm^2 in this experiment. […]
Using direct proportions of peak integration of specimen 6, the concentration of minocycline hydrochloride and rifampin in specimen 5 after curing was determined. […] The antibiotics remaining after curing were calculated as: {(Peak integration of specimen 5)/(peak integration of specimen 6)}×100%

[5] = assay type: physicochemical; details: 0.04 mg/cm^2; remark: listed apart in the source
Method: Mesh was cut into three pieces, each approximate 4 cm^2. Each piece was weighed and it was made sure each piece was 50 mg as the actual area was, ca, 50.0 mg/(10.7 mg/cm^2)=4.7 cm^2. Thiolene formula (60 mg) (thiolene formula contains 67.22 wt % Pentaerythritol tetrakis(3-mercaptopropionate), 32.73 wt % […] Isocyanurate, and 0.05 wt % Hydroquinone:tertbutyl cathetol (1:1 mixture by moles), density is, ca, 1.2 g/mL) was dissolved in acetone aiming for the concentration of 100 mg/mL. […] Made three specimens as shown Table 1. The solutions were transferred onto PP mesh using an automatic pipette while the meshes were held by a plastic clamp. […] The thiolene formula loading was set to 2.5 mg/cm^2 in this experiment. […] HPLC runs of each specimen extract from methanol were performed under the conditions below: • Channel A: 35 mM sodium phosphate monobasic, 1 vol % triethylamine, final pH=7.5 with phosphoric acid • Channel B: acetonitrile • Column temperature=30° C. • Column type: 3×150 mm with 3.5 μm phenyl phase packing • Measurement: absorbance at 280 nm • Solvent flow rate: 1 mL/min • Solvent profile: 0-10 minutes 0-50 vol % Channel B; 10-20 minutes 50 vol % Channel B; 20-25 minutes 50-0 vol % Channel B. The concentration of minocycline hydrochloride and rifampin in specimen 2 after curing were determined using direct proportions of peak area integration of specimen 3. • a. […]

[6] = Drug destruction on curing, thiolene coating with PTPO on polypropylene mesh, HPLC of methanol extracts (Example 6); assay type: physicochemical; details: 0.1 wt % PTPO, halogen dental curing lamp, six coats, theoretical 0.2 mg/cm^2 each drug
Method: 1:1:8 weight ratio of monomer (67.22 wt % pentaerythritol tetrakis(3-mercaptopropionate), 32.73 wt % triallyl isocyanurate, and 0.05 wt % hydroquinone:tertbutyl cathetol (1:1 mixture by mole)):methanol:acetone containing minocycline hydrocholoride and rifampin at 50 mg/mL of each drug blend was made. PTPO (BASF P/N 56415733) was added at 0.1 wt %. Polymerization was induced using a halogen dental curing lamp through curing at a distance 2″ from the light guide for 10 seconds on each side of the mesh. Six coats were applied to result in a theoretical loading of 0.2 mg/cm^2 of each drug. HPLC analysis of methanol extracts indicated 72% and 69% destruction of minocycline hydrochloride and rifampin, respectively. High degradation rates may be the result of the phosphine oxide initiator, which could destroy these drugs upon activation.

[7] = Drug survival during polymerization and post cure loading, BPDM/NTG-GMA methacrylate coating on DualMesh ePTFE, HPLC of methanol extracts (Example 4); assay type: physicochemical; details: drugs in casting solution, theoretical 400 μg/cm^2 each drug, methanol extract
Text: An acetone:ethanol:BPDM solution:NTG-GMA solution in 1:1:1:1 volume ratio was used to coat DualMesh Biomaterial with drugs both present during the polymerization process and loaded into the polymer network after curing had been performed. Circular 0.785 cm^2 samples of DualMesh were coated. In the version were drugs were included in the casting solution, both minocycline hydrochloride and rifampin were incorporated at levels such if no degradation were to have occurred each drug would have been loaded at a bulk surface area density of 400 μg/cm^2. The post-cure loaded version was created by coating the DualMesh with the same amount of polymer coating, and then submerging the specimen in a 5 mL methanol bath containing each drug at 10 mg/mL overnight (˜18 hours) at 4° C. After soaking in the methanol/drug solution, specimens were retrieved from the loading solution and allowed to air dry. Once dried they were passed through two rinse solutions using the following technique: forceps were used to hold specimens while contacting a minimal amount of the surface, vigorously shake the specimen in a 15 mL methanol rinse for 15 seconds, move specimen to a second 15 mL methanol bath and vigorously shake for an additional 15 seconds, and finally allow to air dry. Shaking was performed by moving the forceps back while holding the specimen submerged in the rinse. […]

Remaining after curing [1] | Remaining after curing [2] | Remaining after curing [3] | Remaining after curing [4] | Remaining after curing [5] | destruction of drug [6] | SMILES | average drug survival during the polymerization process [7]
64% | 85% | 54% | 76% | 88% |  | CN(C)c1ccc(O)c2c1C[C@H]1C[C@H]3[C@H](N(C)C)C(O)=C(C(N)=O)C(=O)[C@@]3(O)C(O)=C1C2=O [Minocycline, minocycline hydrochloride] | 
61% | 85% | 58% | 97% | 87% | 69% | CO[C@H]1/C=C/O[C@@]2(C)Oc3c(C)c(O)c4c(O)c(c(/C=N/N5CCN(C)CC5)c(O)c4c3C2=O)NC(=O)/C(C)=C\C=C\[C@H](C)[C@H](O)[C@@H](C)[C@@H](O)[C@@H](C)[C@H](OC(C)=O)[C@@H]1C [Rifampin, rifampin] | 79%
